Where two headings read alike, the source gives them in different places.
What was measured:
[1] = target: CK1δ (Homo sapiens (Human), UniProt P48730); test: LanthaScreen Eu kinase binding assay, CK1δ
[2] = target: CK1ϵ (Homo sapiens (Human), UniProt P49674); test: LanthaScreen Eu kinase binding assay, CK1ϵ
[3] = target: T1, p38α MAPK (Homo sapiens (Human), UniProt Q16539); test: LanthaScreen Eu kinase binding assay, p38 MAPK (IM-32 to IM-44); conditions: LanthaScreen Eu binding assay (IM-32 to IM-44); read-out: p38α MAPK IC50 ± SEM
T1 sequence (Q16539 whole entry, looked up): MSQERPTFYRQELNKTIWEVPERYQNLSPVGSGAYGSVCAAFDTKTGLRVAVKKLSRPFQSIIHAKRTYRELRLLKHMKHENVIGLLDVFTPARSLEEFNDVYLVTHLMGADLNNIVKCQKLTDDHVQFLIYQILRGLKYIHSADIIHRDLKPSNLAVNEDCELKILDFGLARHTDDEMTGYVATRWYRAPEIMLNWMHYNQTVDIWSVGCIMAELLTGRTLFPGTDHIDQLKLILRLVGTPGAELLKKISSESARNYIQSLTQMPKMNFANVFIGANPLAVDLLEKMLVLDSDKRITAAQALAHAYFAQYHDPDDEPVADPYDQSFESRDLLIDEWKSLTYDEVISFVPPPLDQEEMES
Protocol: The p38 MAPK IC50 values of selected compounds except IM-32 to IM-44 were determined using the HitHunter™ p38 MAP kinase binding assay from DiscoveRx Corporation (Fremont, Calif., USA). The p38 MAPK IC50 values of IM-32 to IM-44 and the CK1 IC50 values of selected compounds were determined using LanthaScreen™ Eu kinase binding assay from Invitrogen (Life Technologies, Carlsbad, Calif., USA). The assays were performed following the manufacturers' protocols in white 384-well plates (Cat. No. 3572; Corning Incorporated, Corning, N.Y., USA). SB203580 was used as the control in all assays. For the HitHunter™ p38 MAP kinase binding assay the compounds were dissolved in DMSO (5 mM stocks) and diluted to a final concentration of 2% (vol/vol) DMSO for all assays. Recombinant GST-tagged active p38α MAP kinase enzyme (Millipore, Billerica, Mass., USA) was used for the HitHunter™ p38 MAP kinase binding assay. For the LanthaScreen™ Eu kinase binding assay the compounds were dissolved in DMSO (5 mM stocks) and diluted to a final concentration of 1% (vol/vol) DMSO for all assays. Each data point was done in triplicate. The assay was run using JANUS Automated Workstation according to the protocol developed using WinPREP software (Perkin Elmer Inc., Waltham, Mass., USA). Tecan Infinite® M1000 microplate reader (Tecan Group Ltd., Minnedorf, Switzerland) was used for luminescence measurements (HitHunter™ p38 MAP kinase binding assay) and fluorescence measurements (LanthaScreen™ Eu kinase binding assay; ex=340 nm, em=665, 615 nm). All data analysis was performed using GraphPad Prism 5 software (GraphPad Software Inc.). Inhibition curves and IC50 values were generated by nonlinear regression analysis and data represent mean±SEM.
The in vitro IC50 values of the synthesized compounds against the relevant kinase targets are summarized. The IC50 values were determined using either the HitHunter™ p38 MAPK binding assay from DiscoveRx or the LanthaScreen™ Eu kinase binding assay (for p38alpha MAPK, CK1delta, and CK1epsilon) from Invitrogen.

[4] = target: T1, p38α MAPK; test: HitHunter p38 MAP kinase binding assay
[5] = tested on: hESC3 Nkx2.5eGFP/w cells; test: Differentiation in 96-U bottom ultra-low attachment well plates, GFP area imaging; format: cell-based, human; conditions: 5 μM; for Average GFP %: after CHIR99021, read on day 14, GFP area over embryoid body size; for Average GFP μm^2 / Average Area μm^2: day 14; for Average Area μm^2: embryoid body size
[6] = tested on: H3 hESCs Nkx2.5eGFP/w; test: High yield cardiomyocyte differentiation after 24 h CHIR99021 pre-treatment; format: cell-based, human; conditions: CHIR99021 only; CHIR99021 with SB203580 (days 1-8); CHIR99021 with IM-31 (days 4-8)
[7] = bound given in μM, read-out: p38α MAPK IC50

CK1δ, sequence (P48730 whole entry): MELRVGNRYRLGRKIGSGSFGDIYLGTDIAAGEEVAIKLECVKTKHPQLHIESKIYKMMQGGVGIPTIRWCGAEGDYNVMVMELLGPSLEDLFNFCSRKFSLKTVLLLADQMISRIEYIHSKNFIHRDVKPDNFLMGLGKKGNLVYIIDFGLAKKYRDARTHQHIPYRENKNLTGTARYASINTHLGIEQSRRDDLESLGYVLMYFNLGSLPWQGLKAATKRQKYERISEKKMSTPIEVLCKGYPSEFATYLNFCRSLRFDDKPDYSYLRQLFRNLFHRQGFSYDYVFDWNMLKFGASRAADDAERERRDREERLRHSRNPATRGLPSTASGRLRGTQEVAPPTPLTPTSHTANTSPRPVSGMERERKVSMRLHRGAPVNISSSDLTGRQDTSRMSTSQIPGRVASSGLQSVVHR
CK1ϵ, sequence (P49674 whole entry): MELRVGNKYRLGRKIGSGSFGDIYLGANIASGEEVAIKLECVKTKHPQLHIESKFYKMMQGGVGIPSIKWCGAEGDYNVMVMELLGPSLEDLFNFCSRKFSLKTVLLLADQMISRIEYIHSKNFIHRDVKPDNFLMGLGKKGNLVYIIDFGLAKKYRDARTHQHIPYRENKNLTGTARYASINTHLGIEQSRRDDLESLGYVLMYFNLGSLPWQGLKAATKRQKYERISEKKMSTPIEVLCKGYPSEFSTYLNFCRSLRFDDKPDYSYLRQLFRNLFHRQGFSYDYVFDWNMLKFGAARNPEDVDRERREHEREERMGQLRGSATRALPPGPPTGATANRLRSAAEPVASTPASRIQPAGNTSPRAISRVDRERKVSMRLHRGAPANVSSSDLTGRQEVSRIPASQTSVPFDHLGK

Structure (SMILES) | IC50 ([4]; read-out: p38α MAPK IC50 ± SEM) | inhibition at 1 µM [1] | IC50 ([1]; Table 3, read-out: IC50 CK1δ) | IC50 ([1]; read-out: CK1δ IC50 ± SEM) | IC50 ([2]; Table 3, read-out: IC50 Ck1ε) | IC50 ([2]; read-out: CK1ϵ IC50 ± SEM) | also measured
Cc1cccc(-c2nc(C(O)C3=CCCCC3)[nH]c2-c2ccncc2)c1 (racemic) [IM-43, Cyclohex-1-en-1-yl(5(4)-(pyridin-4-yl)-4(5)-(m-tolyl)-1H-imidazol-2-yl)methanol] |  |  |  |  |  |  | CK1δ inhibition at 1 μM [1]: No inhibition at 1 μM; inhibition at 1 µM [2]: 22%; IC50 [3]: 0.011 ± 0.002 µM
COc1ccc2cc(-c3nc(-c4cccc(C)c4)c(C4=CCOCC4)[nH]3)ccc2c1 [IM-09, 5(4)-(3,6-dihydro-2H-pyran-4-yl)-2-(6-methoxynaphthalen-2-yl)-4(5)-(m-tolyl)-1H-imidazole] | 2.35 ± 0.374 µM | 13% |  |  |  |  | CK1ϵ inhibition at 1 μM [2]: No inhibition at 1 μM
Cc1cccc(-c2nc(-c3ccccc3)[nH]c2C2=CCOCC2)c1 [IM-11, 5(4)-(3,6-dihydro-2H-pyran-4-yl)-2-phenyl-4(5)-(m-tolyl)-1H-imidazole] | 0.526 ± 0.137 µM |  |  |  |  |  | CK1δ inhibition at 1 μM [1]: No inhibition at 1 μM; CK1ϵ inhibition at 1 μM [2]: No inhibition at 1 μM
Cc1cccc(-c2nc(-c3ccccc3Cl)[nH]c2C2=CCOCC2)c1 [IM-12, 2-(2-chlorophenyl)-5(4)-(3,6-dihydro-2H-pyran-4-yl)-4(5)-(m-tolyl)-1H-imidazole] | 0.043 ± 0.002 µM | 23% |  |  |  |  | inhibition at 1 µM [2]: 10%
Cc1cccc(-c2nc(-c3ccccc3Br)[nH]c2C2=CCOCC2)c1 [IM-13, 2-(2-bromophenyl)-5(4)-(3,6-dihydro-2H-pyran-4-yl)-4(5)-(m-tolyl)-1H-imidazole] | 0.019 ± 0.002 µM | 23% |  |  |  |  | inhibition at 1 µM [2]: 23%
Cc1cccc(-c2nc(-c3ccccc3O)[nH]c2C2=CCOCC2)c1 [IM-14, 2-(5(4)-(3,6-dihydro-2H-pyran-4-yl)-4(5)-(m-tolyl)-1H-imidazol-2-yl)phenol] |  |  |  |  |  |  | IC50 [4, 7]: > 5 µM; CK1δ inhibition at 1 μM [1]: No inhibition at 1 μM; inhibition at 1 µM [2]: 3%
Cc1cccc(-c2nc(-c3ccc(O)cc3)[nH]c2C2=CCOCC2)c1 [IM-15, 4-(5(4)-(3,6-dihydro-2H-pyran-4-yl)-4(5)-(m-tolyl)-1H-imidazol-2-yl)phenol] | 0.033 ± 0.002 µM |  |  |  |  |  | CK1δ inhibition at 1 μM [1]: No inhibition at 1 μM; CK1ϵ inhibition at 1 μM [2]: No inhibition at 1 μM
Cc1cccc(-c2nc(-c3ccc([S+](C)[O-])cc3)[nH]c2C2=CCOCC2)c1 (stereo not drawn) [IM-16] | 0.073 ± 0.021 µM |  | 2.54 µM | 2.54 µM | 5.61 µM | 5.61 ± 0.319 µM | 
Cc1cccc(-c2nc(-c3ccc([N+](=O)[O-])cc3)[nH]c2C2=CCOCC2)c1 [IM-17, 5(4)-(3,6-dihydro-2H-pyran-4-yl)-2-(4-nitrophenyl)-4(5)-(m-tolyl)-1H-imidazole] | 0.02 ± 0.002 µM | 17% |  |  |  |  | CK1ϵ inhibition at 1 μM [2]: No inhibition at 1 μM
Cc1cccc(-c2nc(-c3c(F)cccc3F)[nH]c2C2=CCOCC2)c1 [IM-18, 2-(2,6-difluorophenyl)-5(4)-(3,6-dihydro-2H-pyran-4-yl)-4(5)-(m-tolyl)-1H-imidazole] | 0.014 ± 0.002 µM | 3% |  |  |  | 1.24 ± 0.437 µM | 
Cc1cccc(-c2nc(-c3ccccc3F)[nH]c2-c2ccncc2)c1 [IM-19] | 0.0047 ± 0.0012 µM |  | 0.454 µM | 0.454 ± 0.028 µM | 0.15 µM | 0.15 ± 0.089 µM | 
Fc1ccc(-c2nc(-c3ccccc3F)[nH]c2C2=CCOCC2)cc1 [IM-20, 5(4)-(3,6-dihydro-2H-pyran-4-yl)-2-(2-fluorophenyl)-4(5)-(4-fluorophenyl)-1H-imidazole] | 0.561 ± 0.141 µM |  | 1.52 µM | 1.52 ± 0.825 µM | 1.15 µM | 1.15 ± 0.287 µM | 
Cc1ccc(-c2nc(-c3ccccc3F)[nH]c2C2=CCOCC2)cc1 [IM-21, 5(4)-(3,6-dihydro-2H-pyran-4-yl)-2-(2-fluorophenyl)-4(5)-(p-tolyl)-1H-imidazole] | 3.37 ± 0.824 µM |  |  |  |  |  | CK1δ inhibition at 1 μM [1]: No inhibition at 1 μM; CK1ϵ inhibition at 1 μM [2]: No inhibition at 1 μM
Fc1ccc(-c2nc(-c3ccc4ccccc4c3F)[nH]c2C2=CCOCC2)cc1 [IM-22, 5(4)-(3,6-dihydro-2H-pyran-4-yl)-2-(1-fluoronaphthalen-2-yl)-4(5)-(4-fluorophenyl)-1H-imidazole] | 2.31 ± 0.714 µM | 14% |  |  |  |  | CK1ϵ inhibition at 1 μM [2]: No inhibition at 1 μM
Fc1ccc(-c2nc(-c3c(F)cccc3F)[nH]c2C2=CCOCC2)cc1 [IM-23, 2-(2,6-difluorophenyl)-5(4)-(3,6-dihydro-2H-pyran-4-yl)-4(5)-(4-fluorophenyl)-1H-imidazole] | 0.055 ± 0.014 µM |  | 0.548 µM | 0.548 ± 0.116 µM | 0.751 µM | 0.751 ± 0.168 µM | 
Oc1ccc(-c2nc(-c3ccc(F)cc3)c(C3=CCOCC3)[nH]2)cc1 [IM-24, 4-(5(4)-(3,6-dihydro-2H-pyran-4-yl)-4(5)-(4-fluorophenyl)-1H-imidazol-2-yl)phenol] | 0.149 ± 0.033 µM | 14% |  |  |  |  | CK1ϵ inhibition at 1 μM [2]: No inhibition at 1 μM
C[S+]([O-])c1ccc(-c2nc(-c3ccc(F)cc3)c(C3=CCOCC3)[nH]2)cc1 (stereo not drawn) [IM-25] | 0.454 ± 0.067 µM |  | 1.49 µM | 1.49 ± 0.285 µM | 5.89 µM | 5.89 ± 0.18 µM | 
Cc1cccc(-c2nc(-c3c(F)cccc3F)[nH]c2-c2ccncc2)c1 [IM-26] | 0.0043 ± 0.0017 µM |  | 0.078 µM | 0.078 ± 0.02 µM | 0.044 µM | 0.044 ± 0.005 µM | 
Cc1cccc(-c2nc(-c3ccc(O)cc3)[nH]c2-c2ccncc2)c1 [IM-27] | 0.0084 ± 0.003 µM |  | 1.28 µM | 1.28 ± 0.828 µM | 0.411 µM | 0.411 ± 0.12 µM | 
Cc1cccc(-c2nc(-c3ccc([S+](C)[O-])cc3)[nH]c2-c2ccncc2)c1 (stereo not drawn) [IM-28] | 0.024 ± 0.009 µM |  | 0.708 µM | 0.708 ± 0.043 µM | 0.274 µM | 0.274 ± 0.007 µM | 
Fc1ccc(-c2nc(-c3ccc4ccccc4c3F)[nH]c2-c2ccncc2)cc1 [IM-29, 4-(2-(1-fluoronaphthalen-2-yl)-4(5)-(4-fluorophenyl)-1H-imidazol-5(4)-yl)pyridine] | 0.073 ± 0.017 µM |  | 0.015 µM | 0.015 ± 0.003 µM |  | 0.016 ± 0.003 µM | IC50 ([2]; read-out: IC50 Ck1ε): 0.016 µM
Fc1ccc(-c2nc(-c3ccccc3F)[nH]c2-c2ccncc2)cc1 [IM-30, 4-(2-(2-fluorophenyl)-4(5)-(4-fluorophenyl)-1H-imidazol-5(4)-yl)pyridine] | 0.02 ± 0.004 µM |  | 0.032 µM | 0.032 ± 0.004 µM | 0.032 µM | 0.032 ± 0.004 µM | Cardiogenic properties ([5]; at specific time course (induction day 2 or 3)): higher cardiogenic properties as SB203580 and IWP-2; Average GFP % ([5]; Induction Day 2): 32.8%; Average GFP μm^2 ([5]; Induction Day 2): 250.1 μm^2; Average Area μm^2 ([5]; Induction Day 2): 816.0 μm^2; Average GFP % ([5]; Induction Day 3): 36.5%; Average GFP μm^2 ([5]; Induction Day 3): 354.1 μm^2; Average Area μm^2 ([5]; Induction Day 3): 968.7 μm^2
C[S+]([O-])c1ccc(-c2nc(-c3ccc(F)cc3)c(-c3ccncc3)o2)cc1 (stereo not drawn) [OZ-06] | 0.314 ± 0.044 µM | 46% |  |  |  |  | inhibition at 1 µM [2]: 54%
C[S+]([O-])c1ccc(-c2nc(-c3ccncc3)c(-c3ccc(F)cc3)o2)cc1 (stereo not drawn) [OZ-12, 5-(4-fluorophenyl)-2-(4-(methylsulfinyl)phenyl)-4-(pyridin-4-yl)oxazole] |  | 34% |  |  |  |  | IC50 [4, 7]: > 5 µM; inhibition at 1 µM [2]: 51%
C[S+]([O-])c1ccc(-c2nc(-c3ccc(F)cc3)c(-c3ccncc3)[nH]2)cc1 (stereo not drawn) [SB203580, reference compound] |  |  |  |  |  |  | Average beating frequency [6]: 25-30 beats per minute; Beat count (percentage of EBs contracting within 10 s) [6]: over 75%; Beating area [6]: > 5 mm^2; Average GFP % ([5]; Induction Day 2): 34.6%; Average GFP μm^2 ([5]; Induction Day 2): 217.8 μm^2; Average Area μm^2 ([5]; Induction Day 2): 655.4 μm^2; Average GFP % ([5]; Induction Day 3): 3.7%; Average GFP μm^2 ([5]; Induction Day 3): 40.2 μm^2; Average Area μm^2 ([5]; Induction Day 3): 814.2 μm^2
